Entries after “also recorded” stand apart in the source; their conditions may differ.
Assays:
[1] = system: HPSE1, MMP2, IL-6, IL-1β, TNF-α mRNA; IκB-α; experiment: Real-time RT-PCR and western blotting in rat lung tissue after 4 hours of EVLP
Experimental: (§1) Graft tissues collected after 4 hours of EVLP and 2 hours after reperfusion were examined for relative mRNA expression levels of interleukin (IL)-6, IL-1, tumor necrosis factor (TNF)-α, and glyceraldehyde-3-phosphate dehydrogenase (GAPDH). Gene expression levels were normalized to GAPDH mRNA levels.
Western blotting: Total isolated proteins were extracted/resolved by 10% SDS-PAGE followed by transfer to 0.2 μm nitrocellulose membranes (Bio-Rad Laboratories, Hercules, CA, USA). Membranes were blocked with 5% non-fat milk at room temperature for 2 hours and then incubated overnight at 4° C. with the following primary antibodies: inhibitor of KB-α (IκB-α; #9242, Cell Signaling Technology, Inc., Danvers, MA) and β-actin (#A1978, Millipore-Sigma). Membranes were then incubated with either goat anti-mouse IgG (H+L) (#31430, Thermo Fisher Scientific Inc.; 1:5000) or goat anti-rabbit IgG (H+L) (#31460, Thermo Fisher Scientific Inc.; 1:3000) horseradish peroxidase-conjugated polyclonal secondary antibodies at room temperature for 2 hours. Proteins were visualized using an enhanced chemiluminescence kit (Abcam), and protein bands were imaged and analyzed using Image Lab software (Version 6.0; Bio-Rad Laboratories, Inc., Hercules, CA). The intensities of protein bands were quantitated by Image J software (National Institutes of Health, Bethesda, MD).

[2] = system: glycosaminoglycans (GAGs), syndecan-1; experiment: Glycocalyx shedding in rat lungs during EVLP (GAGs, syndecan-1 ELISA, immunofluorescence); details: after 4 hours EVLP; SF4 vs heparin-treated, heparin vs controls
Experimental: Syndecan-1 ELISA: Syndecan-1 concentrations in EVLP perfusate were quantitated using ELISA (Immunotag™ Rat Syndecan-1 ELISA, G-Biosciences, Geno Technology, Inc., St. Louis, MO). ELISA was performed according to the manufacturer's instructions using perfusate samples acquired after 4 hours of EVLP.
Determination of glycosaminoglycans (GAGS): The concentration of GAGs in rat EVLP perfusate at 4 hours was quantitated using 1,9-dimethylmethylene blue (DMMB, Millipore Sigma). The DMMB solution (pH˜3.0) was prepared by dissolving 16 mg/I DMMB in distilled H2O containing 3.04 g/I glycine, 1.6 g/l NaCl and 95 ml 0.1 M acetic acid. Briefly, 1 ml DMMB solution was mixed with 100 μl EVLP perfusate then incubated for 18 h at room temperature. The tubes were then centrifuged at 14,000 rpm for 20 min at 4° C. Supernatants were carefully decanted, 100 μl dissolvent buffer (4 M guanidine hydrochloride, 50 mM sodium acetate, 10% propan-1-ol, pH 6.8) was added to each pellet, and the tubes were incubated at 40° C. and vortexed until GAG-DMMB pellets were completely dissolved. GAG content in each sample was measured spectrophotometrically at 656 nm.
(§2) Tissue staining and histopathological analysis: Formalin-fixed, paraffin-embedded lung tissues collected 2 hours after transplantation were sectioned to 4 μm thickness and stained with hematoxylin and eosin. In parallel, sections of tissue collected after 4 hours of EVLP were stained for immunofluorescence imaging using primary antibodies for syndecan-1 (DL-101) (#sc-12765, Santa Cruz) and caveolin-1 (#3238, Cell Signaling Technology, Danvers, MA) and with Hoechst 33342 dye (Thermo Scientific). Donkey Cy3-conjugated anti-mouse IgG (#AP192C, MilliporeSigma, Burlington, MA) and Cy5-conjugated goat anti-rabbit IgG (#A10523, Thermo Scientific) secondary antibodies were used to detect primary antibodies. Stained slides were scanned with a whole-slide image scanner (Axio Scan.Z1; Carl Zeiss AB, Oberkochen, Germany) and analyzed with digital image processing software (ZEN lite blue edition; Carl Zeiss).

rat lung grafts = experiment: Rat orthotopic left lung transplantation following EVLP; format: in vivo; details: 2 hours after transplant following 4 hours of EVLP
Experimental: Rat orthotopic left lung transplantation following EVLP: Orthotopic, single-lung transplantation of the left lung was performed using the 3-cuff method. After EVLP for 4 hours, the lungs were cooled with 4° C. Perfadex on the EVLP system and stored at 4° C. for 1 hour prior to transplantation. The recipient animals were sacrificed 2 hours after reperfusion. When analyzing graft function, the native lung was clamped, 100% 02 was administered for 5 minutes through a ventilator, and the recipient's blood was sampled from the graft pulmonary vein for blood gas analysis.
as §1, §2

heparin
IL-1β mRNA expression ([1]; lung tissue after 4-hours EVLP): increased
IL-6 mRNA expression ([1]; lung tissue after 4-hours EVLP): increased
TNF-α mRNA expression ([1]; lung tissue after 4-hours EVLP): increased
pro-MMP2 gene expression ([1]; lung tissue after 4 hours of EVLP): further upregulated
HPSE1 mRNA expression ([1]; lung tissue after 4 hours of EVLP, vs sham): not altered
syndecan-1 concentration in EVLP perfusate [2]: markedly increased; also recorded: significantly higher
H&E histology of grafts (rat lung grafts): swollen alveolar walls, congestion in the blood vessels, and fluid leaks into the alveolar space
post-transplant lung function (P/F ratio) (rat lung grafts): significantly lower

— patent publication US20250204515A1, “Heparanase Inhibition for Graft Protection” (University of Pittsburgh - Of the Commonwealth System of …, priority 2022, published 2025)
